# Columns and labels:
# [1] = molecular target: peripheral benzodiazepine receptor ("PBR") (Homo sapiens, UniProt P30536); details: cited from earlier work
# [2] = tested on: central benzodiazepine receptor; details: cited from earlier work
# [3] = molecular target: mitochondrial F1Fo-ATPase; details: cited from earlier work
# [4] = Simulated gastric fluid solubility at 37° C.; assay type: physicochemical; details: versus solvated Bz-423
# [5] = molecular target: T1, mitochondrial F0F1 ATPase (Homo sapiens, UniProt P48047); test: ATP hydrolysis; assay type: biochemical; details: compared with solvated Bz-423 (FIG. 11)
# [6] = molecular target: T1, mitochondrial F0F1 ATPase; test: ATP synthesis; assay type: biochemical; details: compared with solvated Bz-423 (FIG. 12)
# cells = test: Cell viability; assay type: cell-based; details: compared with solvated Bz-423 (FIG. 13)
# [7] = Water solubility at 37° C.; details: versus solvated Bz-423
# rodents = details: two daily doses; cited from earlier work
# Chain of peripheral benzodiazepine receptor ("PBR") (P30536 whole entry, species assumed): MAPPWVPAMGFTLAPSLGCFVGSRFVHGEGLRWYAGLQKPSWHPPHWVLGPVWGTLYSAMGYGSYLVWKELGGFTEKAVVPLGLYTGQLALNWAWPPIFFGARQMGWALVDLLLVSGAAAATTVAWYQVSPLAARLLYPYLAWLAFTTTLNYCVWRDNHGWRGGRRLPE
compound,measurement,setting,value
CN1C(=O)C(Cc2ccc3ccccc3c2)N=C(c2ccc(O)cc2)c2cc(Cl)ccc21 (stereo not shown) [Bz-423],Kd,[1],~1 µM
same,binding to the central benzodiazepine receptor,[2],prevents binding to the central benzodiazepine receptor
same,Ki,[3],~9 µM
CN1C(=O)C(Cc2ccc3ccccc3c2)N=C(c2ccc(O)cc2)c2cc(Cl)ccc21 (stereo not shown) [anhydrous BZ-423 ball milled],"solubility in simulated gastric fluid, comparison in words",[4],more soluble than solvated Bz-423
same,ATP hydrolysis,[5],capable of inhibiting ATP hydrolysis
same,ATP synthesis,[6],not inhibiting cell synthesis
same,cell viability,cells,not affecting cell viability
same,"water solubility, comparison in words",[7],more soluble than solvated Bz-423
"CC[C@H]1/C=C/C=C/C[C@@H](C)[C@H](O)[C@@](C)(O)C(=O)[C@@H](C)[C@H](O)[C@@H](C)C(=O)[C@@H](C)[C@H](O)[C@@H](C)/C=C/C(=O)O[C@@H]2[C@H](C)[C@H](CC1)O[C@]1(CC[C@H](C)[C@H](C[C@@H](C)O)O1)[C@H]2C [oligomycin, reference compound]",IC50,[3],0.01 µM
same,LD50,rodents,0.5 mg/kg

# Reference: patent US7994313B2 (priority 2005, dated 2011)
